Like-named read-outs stand apart in the source and are kept apart here.
Experiments:
[1] = target: ABL1; set-up: method as in Becher et al., 2013; conditions: chemoproteomics; ref Becher et al., 2013; read-out: Kd,app (ATP-Mg), ABL1; cited from earlier work
[2] = target: DDR1; set-up: method as in Becher et al., 2013; conditions: chemoproteomics; ref Becher et al., 2013; read-out: Kd,app (ATP-Mg), DDR1; cited from earlier work
[3] = target: ABL2; set-up: method as in Becher et al., 2013; conditions: chemoproteomics; ref Becher et al., 2013; read-out: Kd,app (ATP-Mg), ABL2; cited from earlier work
[4] = target: T1, PDK2/PDHK2 (Homo sapiens, UniProt Q15119); assay: HotSpot in vitro kinase radiometric assay; type: biochemical; conditions: PDK2/PDHK2; ATP 15 uM; read-out: IC50 (M) Control Cmpd
T1 construct: purchased Reaction Biology (HotSpot contract assay)
Description: (§1) Accordingly, we selected five additional representative HSP90 inhibitors, at least one from each chemical class, including both synthetic inhibitors and natural products. […]
(§2) This radioisotope binding assay was designed to directly detect the true product without the use of modified substrates, coupling enzymes, or detection antibodies thus enabling to directly measure inhibition of catalytic activity. Test or control compounds were incubated with kinase, substrate, cofactors, and radioisotope-labeled ATP (32P-ɣ-ATP or 33P-ɣ-ATP). The reaction mixtures were then spotted onto filter papers, which bind the radioisotope-labeled catalytic product.

[5] = target: T2, PDK4/PDKH4 (Homo sapiens, UniProt Q16654); assay: HotSpot in vitro kinase radiometric assay; type: biochemical; conditions: PDK4/PDKH4; ATP 30 uM; read-out: IC50 (M) Control Cmpd
T2 construct: purchased Reaction Biology (HotSpot contract assay)
T2 sequence (Q16654 whole entry): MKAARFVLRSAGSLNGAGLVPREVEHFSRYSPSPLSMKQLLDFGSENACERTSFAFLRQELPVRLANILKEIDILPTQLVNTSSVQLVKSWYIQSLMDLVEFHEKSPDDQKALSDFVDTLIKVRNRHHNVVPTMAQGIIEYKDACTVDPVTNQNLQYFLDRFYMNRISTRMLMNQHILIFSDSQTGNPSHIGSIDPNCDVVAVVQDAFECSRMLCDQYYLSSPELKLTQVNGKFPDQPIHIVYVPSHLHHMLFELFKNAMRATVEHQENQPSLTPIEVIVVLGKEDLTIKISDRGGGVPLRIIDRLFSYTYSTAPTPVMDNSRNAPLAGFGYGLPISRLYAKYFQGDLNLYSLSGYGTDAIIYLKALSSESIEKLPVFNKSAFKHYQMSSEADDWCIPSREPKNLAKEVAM
Description: as §1, §2

[6] = target: T3, 382 unique human kinases (Homo sapiens, UniProt Q15118); assay: biochemical; type: biochemical; conditions: PDK1/PDHK1; [ATP] 50 µM; read-out: Control Compound IC50*
T3 construct: purchased Reaction Biology (HotSpot contract assay)

[7] = target: T4, 382 unique human kinases (Homo sapiens, UniProt Q15120); assay: biochemical; type: biochemical; conditions: PDK3/PDHK3; [ATP] 30 µM; read-out: Control Compound IC50*
T4 construct: purchased Reaction Biology (HotSpot contract assay)

[8] = target: T5, 382 unique human kinases (Homo sapiens, UniProt Q9Y572); assay: biochemical; type: biochemical; conditions: RIPK3; [ATP] 2.5 µM; read-out: Control Compound IC50*
T5 construct: purchased Reaction Biology (HotSpot contract assay)

[9] = target: T6, 382 unique human kinases (Homo sapiens, UniProt P68400); assay: biochemical; type: biochemical; conditions: CK2a; read-out: Control Compound IC50*
T6 construct: purchased Reaction Biology (HotSpot contract assay)
T6 sequence (P68400 whole entry): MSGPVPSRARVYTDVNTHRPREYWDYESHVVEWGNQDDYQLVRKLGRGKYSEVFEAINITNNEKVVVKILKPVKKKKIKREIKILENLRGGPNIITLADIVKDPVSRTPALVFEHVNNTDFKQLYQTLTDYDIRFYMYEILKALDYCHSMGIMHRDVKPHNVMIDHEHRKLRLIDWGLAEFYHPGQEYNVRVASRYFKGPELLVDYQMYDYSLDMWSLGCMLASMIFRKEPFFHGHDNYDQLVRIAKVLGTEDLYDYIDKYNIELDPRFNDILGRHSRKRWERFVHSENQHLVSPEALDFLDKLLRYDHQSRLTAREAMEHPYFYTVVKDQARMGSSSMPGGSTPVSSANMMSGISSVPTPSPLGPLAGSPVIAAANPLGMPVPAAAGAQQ

[10] = target: T7, 382 unique human kinases (Homo sapiens, UniProt P10398); assay: biochemical; type: biochemical; conditions: ARAF; read-out: Control Compound IC50*
T7 construct: purchased Reaction Biology (HotSpot contract assay)
T7 sequence (P10398 1-606): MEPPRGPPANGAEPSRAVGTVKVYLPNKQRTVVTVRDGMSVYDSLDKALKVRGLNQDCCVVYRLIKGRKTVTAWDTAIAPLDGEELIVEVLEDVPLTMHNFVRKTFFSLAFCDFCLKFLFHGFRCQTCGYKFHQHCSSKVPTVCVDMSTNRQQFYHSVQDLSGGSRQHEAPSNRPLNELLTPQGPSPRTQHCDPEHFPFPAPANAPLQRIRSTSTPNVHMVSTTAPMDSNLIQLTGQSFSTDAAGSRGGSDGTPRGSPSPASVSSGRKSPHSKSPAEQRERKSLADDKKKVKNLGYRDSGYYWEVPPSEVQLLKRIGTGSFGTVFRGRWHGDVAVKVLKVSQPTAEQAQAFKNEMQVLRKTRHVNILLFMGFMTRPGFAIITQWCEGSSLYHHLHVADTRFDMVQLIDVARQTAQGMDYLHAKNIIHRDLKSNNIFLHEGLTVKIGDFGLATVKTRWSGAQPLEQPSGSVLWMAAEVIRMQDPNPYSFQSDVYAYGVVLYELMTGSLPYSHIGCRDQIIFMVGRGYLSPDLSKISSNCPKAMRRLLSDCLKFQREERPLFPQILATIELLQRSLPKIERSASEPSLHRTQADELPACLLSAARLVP

[11] = target: T8, 382 unique human kinases (Homo sapiens, UniProt Q15119); assay: biochemical; type: biochemical; conditions: PDK2/PDHK2; [ATP] 15 µM; read-out: Control Compound IC50*
T8 construct: purchased Reaction Biology (HotSpot contract assay)

[12] = target: T9, 382 unique human kinases (Homo sapiens, UniProt Q9NR20); assay: biochemical; type: biochemical; conditions: DYRK4; read-out: Control Compound IC50*
T9 construct: purchased Reaction Biology (HotSpot contract assay)
T9 sequence (Q9NR20 1-520): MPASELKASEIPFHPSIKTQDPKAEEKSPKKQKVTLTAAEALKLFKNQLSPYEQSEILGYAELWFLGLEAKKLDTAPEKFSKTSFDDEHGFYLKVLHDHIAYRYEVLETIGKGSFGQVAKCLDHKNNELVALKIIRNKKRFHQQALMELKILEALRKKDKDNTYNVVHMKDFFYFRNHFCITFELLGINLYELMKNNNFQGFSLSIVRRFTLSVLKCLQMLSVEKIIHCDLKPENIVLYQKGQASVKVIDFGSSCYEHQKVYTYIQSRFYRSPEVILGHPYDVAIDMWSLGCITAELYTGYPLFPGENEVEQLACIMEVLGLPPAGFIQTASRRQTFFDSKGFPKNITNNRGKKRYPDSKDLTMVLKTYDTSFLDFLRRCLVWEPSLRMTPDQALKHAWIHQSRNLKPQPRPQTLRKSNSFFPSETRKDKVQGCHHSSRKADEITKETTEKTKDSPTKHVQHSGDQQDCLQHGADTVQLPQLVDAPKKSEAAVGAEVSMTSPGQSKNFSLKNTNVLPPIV

[13] = target: T10, 382 unique human kinases (Homo sapiens, UniProt Q16654); assay: biochemical; type: biochemical; conditions: PDK4/PDKH4; [ATP] 30 µM; read-out: Control Compound IC50*
T10 construct: purchased Reaction Biology (HotSpot contract assay)
T10 sequence (Q16654 whole entry): as the sequence (Q16654 whole entry) above

[14] = system: 382 unique human kinases; assay: biochemical; type: biochemical; conditions: read-out: Control Compound IC50*
[15] = target: T11, 382 unique human kinases (Homo sapiens, UniProt Q9NYL2); assay: biochemical; type: biochemical; conditions: ZAK/MLTK; [ATP] 50 µM; read-out: Control Compound IC50*
T11 construct: purchased Reaction Biology (HotSpot contract assay)

[16] = target: T12, FYN (Homo sapiens, UniProt P06241); assay: HotSpot in vitro kinase radiometric assay; type: biochemical; conditions: FYN; 10uM; ATP 30 uM; Data 1, Data 2; read-out: % Enzyme Activity (relative to DMSO controls)
T12 construct: purchased Reaction Biology (HotSpot contract assay)

[17] = target: T13, LCK (Homo sapiens, UniProt P06239); assay: HotSpot in vitro kinase radiometric assay; type: biochemical; conditions: LCK; 10uM; ATP 15 uM; Data 1, Data 2; read-out: % Enzyme Activity (relative to DMSO controls)
T13 construct: purchased Reaction Biology (HotSpot contract assay)
T13 sequence (P06239 whole entry): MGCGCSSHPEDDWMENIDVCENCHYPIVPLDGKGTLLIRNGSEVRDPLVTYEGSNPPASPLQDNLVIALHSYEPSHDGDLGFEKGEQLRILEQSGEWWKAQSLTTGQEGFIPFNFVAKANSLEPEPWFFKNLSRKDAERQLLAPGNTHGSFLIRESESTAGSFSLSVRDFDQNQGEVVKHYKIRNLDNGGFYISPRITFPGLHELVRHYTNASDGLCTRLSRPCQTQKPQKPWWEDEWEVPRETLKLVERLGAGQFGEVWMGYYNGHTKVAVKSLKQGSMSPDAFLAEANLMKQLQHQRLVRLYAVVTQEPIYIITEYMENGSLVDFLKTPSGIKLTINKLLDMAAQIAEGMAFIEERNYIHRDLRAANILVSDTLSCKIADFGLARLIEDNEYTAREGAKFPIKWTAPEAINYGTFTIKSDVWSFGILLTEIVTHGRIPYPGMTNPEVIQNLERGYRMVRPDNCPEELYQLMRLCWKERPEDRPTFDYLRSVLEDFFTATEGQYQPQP

[18] = system: 16-kinase panel; assay: 16-kinase panel screening, in vitro radiometric assay; type: biochemical, human; conditions: 10 μM
[19] = target: human 3-methyl-2-oxobutanoate dehydrogenase kinase (BCKDHK); set-up: method as in Besant et al., 2002; conditions: ref Besant et al., 2002; cited from earlier work
[20] = target: T14, TRKC (Homo sapiens, UniProt Q16288); assay: HotSpot in vitro kinase radiometric assay; type: biochemical; conditions: TRKC; 10uM; ATP 100 uM; Data 1, Data 2; read-out: % Enzyme Activity (relative to DMSO controls)
T14 construct: purchased Reaction Biology (HotSpot contract assay)
T14 sequence (Q16288 32-839): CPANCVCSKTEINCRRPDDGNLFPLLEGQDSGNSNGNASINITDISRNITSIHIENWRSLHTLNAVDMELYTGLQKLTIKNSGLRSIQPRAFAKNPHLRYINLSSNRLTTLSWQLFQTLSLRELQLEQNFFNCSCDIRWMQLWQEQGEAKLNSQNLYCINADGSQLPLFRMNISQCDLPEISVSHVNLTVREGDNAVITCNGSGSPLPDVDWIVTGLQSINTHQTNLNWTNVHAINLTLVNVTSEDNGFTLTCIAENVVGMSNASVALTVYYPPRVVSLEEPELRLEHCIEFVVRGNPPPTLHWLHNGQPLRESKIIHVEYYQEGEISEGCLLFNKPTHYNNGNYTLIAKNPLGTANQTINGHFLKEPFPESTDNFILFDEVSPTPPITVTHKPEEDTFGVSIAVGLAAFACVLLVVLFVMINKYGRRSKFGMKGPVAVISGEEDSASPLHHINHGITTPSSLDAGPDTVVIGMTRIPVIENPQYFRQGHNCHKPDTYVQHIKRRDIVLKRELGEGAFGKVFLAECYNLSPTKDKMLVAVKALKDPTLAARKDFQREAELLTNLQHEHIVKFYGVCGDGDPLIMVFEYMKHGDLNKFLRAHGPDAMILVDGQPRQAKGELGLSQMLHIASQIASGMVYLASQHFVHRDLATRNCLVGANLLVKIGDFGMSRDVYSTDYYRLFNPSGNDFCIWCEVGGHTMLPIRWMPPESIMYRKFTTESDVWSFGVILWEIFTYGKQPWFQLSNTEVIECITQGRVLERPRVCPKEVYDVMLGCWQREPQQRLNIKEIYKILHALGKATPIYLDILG

[21] = target: T15, YES/YES1 (Homo sapiens, UniProt P07947); assay: HotSpot in vitro kinase radiometric assay; type: biochemical; conditions: YES/YES1; 10uM; ATP 50 uM; Data 1, Data 2; read-out: % Enzyme Activity (relative to DMSO controls)
T15 construct: purchased Reaction Biology (HotSpot contract assay)

[22] = target: T16, BLK (Homo sapiens, UniProt P51451); assay: HotSpot in vitro kinase radiometric assay; type: biochemical; conditions: BLK; 10uM; ATP 10 uM; Data 1, Data 2; read-out: % Enzyme Activity (relative to DMSO controls)
T16 construct: purchased Reaction Biology (HotSpot contract assay)
T16 sequence (P51451 whole entry): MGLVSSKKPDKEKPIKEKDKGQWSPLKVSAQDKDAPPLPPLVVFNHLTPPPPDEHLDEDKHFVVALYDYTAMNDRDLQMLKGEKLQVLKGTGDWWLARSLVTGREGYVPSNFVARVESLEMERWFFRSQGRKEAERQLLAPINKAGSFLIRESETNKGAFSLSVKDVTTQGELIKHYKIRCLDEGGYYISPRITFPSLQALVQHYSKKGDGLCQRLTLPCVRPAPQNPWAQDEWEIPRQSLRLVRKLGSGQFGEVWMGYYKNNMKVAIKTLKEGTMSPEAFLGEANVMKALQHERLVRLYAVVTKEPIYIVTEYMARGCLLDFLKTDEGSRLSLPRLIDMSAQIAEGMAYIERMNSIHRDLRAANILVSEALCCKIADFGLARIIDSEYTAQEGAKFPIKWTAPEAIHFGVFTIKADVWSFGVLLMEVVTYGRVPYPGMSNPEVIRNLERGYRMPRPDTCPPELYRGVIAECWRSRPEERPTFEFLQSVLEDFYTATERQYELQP
Description: as §1, §2

[23] = target: T17, LYN B (Homo sapiens, UniProt P07948); assay: HotSpot in vitro kinase radiometric assay; type: biochemical; conditions: LYN B; 10uM; ATP 20 uM; Data 1, Data 2; read-out: % Enzyme Activity (relative to DMSO controls)
T17 construct: purchased Reaction Biology (HotSpot contract assay)
Description: as §1, §2

[24] = target: T18, c-Src (Homo sapiens, UniProt P12931); assay: HotSpot in vitro kinase radiometric assay; type: biochemical; conditions: c-Src; 10uM; ATP 15 uM; Data 1, Data 2; read-out: % Enzyme Activity (relative to DMSO controls)
T18 construct: purchased Reaction Biology (HotSpot contract assay)
T18 sequence (P12931 whole entry): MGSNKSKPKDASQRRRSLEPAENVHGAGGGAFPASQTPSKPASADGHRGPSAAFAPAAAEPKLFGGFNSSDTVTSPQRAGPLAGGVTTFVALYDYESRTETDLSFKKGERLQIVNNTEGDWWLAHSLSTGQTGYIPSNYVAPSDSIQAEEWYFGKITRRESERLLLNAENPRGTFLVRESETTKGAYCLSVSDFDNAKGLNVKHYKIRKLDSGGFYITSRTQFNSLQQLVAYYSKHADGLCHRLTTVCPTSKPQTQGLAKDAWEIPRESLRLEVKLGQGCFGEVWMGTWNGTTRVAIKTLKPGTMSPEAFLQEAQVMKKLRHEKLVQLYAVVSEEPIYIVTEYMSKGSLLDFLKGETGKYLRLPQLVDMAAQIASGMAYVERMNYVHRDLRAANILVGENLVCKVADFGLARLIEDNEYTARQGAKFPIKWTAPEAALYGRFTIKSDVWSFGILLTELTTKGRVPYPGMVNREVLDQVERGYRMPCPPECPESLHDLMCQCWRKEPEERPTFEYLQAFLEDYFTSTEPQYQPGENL
Description: as §1, §2

[25] = target: ABL1 (Homo sapiens, UniProt P00519); assay: HotSpot in vitro kinase radiometric assay; type: biochemical; set-up: purchased Reaction Biology (HotSpot contract assay); conditions: ABL1; 10uM; ATP 40 uM; Data 1, Data 2; read-out: % Enzyme Activity (relative to DMSO controls)
[26] = target: T19, PEAK1 (Homo sapiens, UniProt Q9H792); assay: HotSpot in vitro kinase radiometric assay; type: biochemical; conditions: PEAK1; 10uM; ATP 30 uM; Data 1, Data 2; read-out: % Enzyme Activity (relative to DMSO controls)
T19 construct: purchased Reaction Biology (HotSpot contract assay)

[27] = target: T20, FGR (Homo sapiens, UniProt P09769); assay: HotSpot in vitro kinase radiometric assay; type: biochemical; conditions: FGR; 10uM; ATP 50 uM; Data 1, Data 2; read-out: % Enzyme Activity (relative to DMSO controls)
T20 construct: purchased Reaction Biology (HotSpot contract assay)

[28] = target: bacterial sensor kinase PhoQ; set-up: method as in Guarnieri et al., 2008; conditions: ref Guarnieri et al., 2008; cited from earlier work
[29] = target: DDR1 (Homo sapiens, UniProt Q08345); assay: HotSpot in vitro kinase radiometric assay; type: biochemical; set-up: purchased Reaction Biology (HotSpot contract assay); conditions: DDR1; 10uM; ATP 100 uM; Data 1, Data 2; read-out: % Enzyme Activity (relative to DMSO controls)
[30] = target: human pyruvate dehydrogenase kinases; set-up: method as in Kato et al., 2007; conditions: ref Kato et al., 2007; cited from earlier work
[31] = target: T21, ABL2/ARG (Homo sapiens, UniProt P42684); assay: HotSpot in vitro kinase radiometric assay; type: biochemical; conditions: ABL2/ARG; 10uM; ATP 30 uM; Data 1, Data 2; read-out: % Enzyme Activity (relative to DMSO controls)
T21 construct: purchased Reaction Biology (HotSpot contract assay)

[32] = target: T22, PASK (Homo sapiens, UniProt Q96RG2); assay: HotSpot in vitro kinase radiometric assay; type: biochemical; conditions: PASK; 10uM; ATP 50 uM; Data 1, Data 2; read-out: % Enzyme Activity (relative to DMSO controls)
T22 construct: purchased Reaction Biology (HotSpot contract assay)
T22 sequence (Q96RG2 whole entry): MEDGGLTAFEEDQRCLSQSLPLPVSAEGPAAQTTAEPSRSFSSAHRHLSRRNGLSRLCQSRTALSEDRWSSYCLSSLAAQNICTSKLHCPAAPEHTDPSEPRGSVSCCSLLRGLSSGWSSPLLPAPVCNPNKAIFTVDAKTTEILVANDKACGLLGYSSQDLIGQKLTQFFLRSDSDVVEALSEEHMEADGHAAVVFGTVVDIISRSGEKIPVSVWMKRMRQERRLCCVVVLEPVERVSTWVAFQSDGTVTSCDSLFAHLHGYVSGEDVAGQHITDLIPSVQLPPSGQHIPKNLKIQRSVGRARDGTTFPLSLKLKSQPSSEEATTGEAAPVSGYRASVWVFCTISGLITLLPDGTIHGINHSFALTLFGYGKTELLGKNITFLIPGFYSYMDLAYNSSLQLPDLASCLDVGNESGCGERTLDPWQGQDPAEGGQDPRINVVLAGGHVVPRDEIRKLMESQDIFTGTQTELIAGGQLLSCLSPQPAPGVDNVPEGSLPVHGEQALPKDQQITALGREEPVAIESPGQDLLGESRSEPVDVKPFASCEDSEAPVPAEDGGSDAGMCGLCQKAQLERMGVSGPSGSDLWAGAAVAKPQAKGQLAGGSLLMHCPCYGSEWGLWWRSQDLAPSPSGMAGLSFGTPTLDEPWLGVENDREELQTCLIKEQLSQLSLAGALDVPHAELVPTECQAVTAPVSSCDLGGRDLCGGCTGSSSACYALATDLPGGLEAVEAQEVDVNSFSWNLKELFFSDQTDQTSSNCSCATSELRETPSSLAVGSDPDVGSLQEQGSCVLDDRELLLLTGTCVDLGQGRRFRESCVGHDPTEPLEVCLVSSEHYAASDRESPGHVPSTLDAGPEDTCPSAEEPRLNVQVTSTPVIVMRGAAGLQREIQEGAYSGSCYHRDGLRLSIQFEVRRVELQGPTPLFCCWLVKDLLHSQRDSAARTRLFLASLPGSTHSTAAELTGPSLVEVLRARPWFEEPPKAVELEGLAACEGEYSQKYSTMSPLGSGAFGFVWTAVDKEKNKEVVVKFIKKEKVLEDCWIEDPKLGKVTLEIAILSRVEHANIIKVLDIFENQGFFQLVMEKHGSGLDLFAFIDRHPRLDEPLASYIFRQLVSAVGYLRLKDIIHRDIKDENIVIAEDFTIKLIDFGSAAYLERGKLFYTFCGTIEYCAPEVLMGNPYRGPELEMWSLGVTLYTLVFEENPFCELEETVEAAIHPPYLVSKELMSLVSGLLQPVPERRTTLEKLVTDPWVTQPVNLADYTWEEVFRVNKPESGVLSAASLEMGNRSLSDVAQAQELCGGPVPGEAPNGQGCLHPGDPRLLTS
Excerpt: (§3) Accordingly, we selected five additional representative HSP90 inhibitors, at least one from each chemical class, including both synthetic inhibitors and natural products.
(§4) Accordingly, we screened the hit compound and the two leads for kinase off-target inhibition using the 16-kinase panel and the same in vitro catalytic assay used previously.
as §2

[33] = target: T23, TRKA (Homo sapiens, UniProt P04629); assay: HotSpot in vitro kinase radiometric assay; type: biochemical; conditions: TRKA; 10uM; ATP 100 uM; Data 1, Data 2; read-out: % Enzyme Activity (relative to DMSO controls)
T23 construct: purchased Reaction Biology (HotSpot contract assay)
Excerpt: as §3, §4, §2

Structure (SMILES): Nc1ncnc2c1ncn2[C@@H]1O[C@H](COP(=O)(O)OP(=O)(O)OP(=O)(O)O)[C@@H](O)[C@H]1O [ATP-Mg]
- Kd [1]: 37 to 99 µM
- Kd [2]: > 1000 µM
- Kd [3]: 423 µM

Structure (SMILES): O=C1Nc2ccc(I)cc2/C1=C/c1cc(Br)c(O)c(Br)c1 [GW5074]
- IC50 [4]: 6.39e-06 M
- IC50 [5]: 2.51e-06 M
- IC50 [6]: 32.2 µM
- IC50 [7]: 12.1 µM
- IC50 [8]: 1.06 µM
- IC50 [9]: 0.398 µM
- IC50 [10]: 0.014 µM
- IC50 [11]: 6.61 µM
- IC50 [12]: 1.88 µM
- IC50 [13]: 1.72 µM
- IC50 [15]: 2.62 µM

Structure (SMILES): C[C@@H]1C[C@H]2O[C@@H]2/C=C\C=C\C(=O)Cc2c(Cl)c(O)cc(O)c2C(=O)O1 [Radicicol]
- remaining activity at 10 µM [16]: 110%
- remaining activity at 10 µM [17]: 119%
- activity against the 16-kinase panel [18]: inactive
- IC50 [19]: 0.635 µM
- remaining activity at 10 µM [20]: 98.6%
- remaining activity at 10 µM [21]: 103%
- remaining activity at 10 µM [22]: 104%
- remaining activity at 10 µM [23]: 114%
- remaining activity at 10 µM [24]: 96.8%
- remaining activity at 10 µM [25]: 106%
- remaining activity at 10 µM [26]: 104%
- remaining activity at 10 µM [27]: 112%
- Kd [28]: 715 µM
- remaining activity at 10 µM [29]: 105%
- IC50 [30]: 230 to 400 µM
- remaining activity at 10 µM [31]: 117%
- remaining activity at 10 µM [32]: 94.4%
- remaining activity at 10 µM [33]: 106%

Reference: publication PMC8550792, “Evolution of kinase polypharmacology across HSP90 drug discovery” (Cell Chemical Biology, 2021)
